Measurements taken from patent US20210077570A1, “COMPOSITION COMPRISING A POLYMYXIN AND TEICOPLANIN” (GALENUS G.H. AG, priority 2018, published 2021).
Like-named read-outs stand apart in the source and are kept apart here. Positions of bridges follow the written chain, without caps; N, C: chain ends. Non-standard residues stand in square brackets, D forms with d. Residues, ends and D or L forms follow the SMILES beside them. *: point of attachment. Heptanoyl(5-Me) = CCC(C)CCCC(=O)*; Dab = NCC[C@H](N)C(=O)O

What was measured:
[1] = system: A. haemolyticus 1655843; test: Checkerboard analysis MIC/FIC and MBC/FBC, colistin sulphate plus teicoplanin; assay type: cell-based; settings: agent alone, CAMHB, inoculum 5*10^5 CFU/ml; for MBC: A. haemolyticus
Protocol: Checkerboard analysis to determine minimal inhibitory concentration (MIC)/fractional inhibitory concentration (FIC) and minimal […] (MBC)/fractional […] (FBC) values of colistin sulphate (CS) plus teicoplanin (TP) for 6 Gram-negative strains with a bacterial load 5(1−10)*10^5 CFU/ml in a cation-adjusted Mueller-Hinton broth (CAMHB). • a. Antimicrobial stock solutions were prepared using sterile distilled water • b. CS was added along the ordinate; TP was added along the abscissa to 96 well, flat bottom, polystyrene panels with no treatment. Colistin alone was tested in triplicates. • c. Serial 2-fold dilutions starting with 640 μg/ml CS and 640 μg/ml TP were made; 15 μl volume of the serial dilutions were added for each agent to the appropriate wells; final volume at 30 μl • d. For each agent tested alone an additional 15 μl media was added to the well. 30 μl were added in control wells where none of the agent was tested. The negative control well contains 150 μl media without any additions • e. From an overnight bacterial culture in tryptic soy broth, 100 μl was added to 10 mL of fresh tryptic soy broth. This was then incubated at 37° C. for 1.5 hour at 180 rpm. • f. Bacteria in 120 μl CAMHB were added to each well (end concentration 5(1−10)*10^5 CFU/ml) • g. Plates were incubated at 37° C. in an ambient air incubator for 24 h • h. Turbidity at OD600 is determined with a plate photometer • i. […] Determination of the fractional inhibitory concentration (FIC) index and fractional bactericidal concentration (FBC) index and characterization of antimicrobial interactions was assessed • FIC calculation was carried out as: (MIC of drug A, tested in combination)/(MIC of drug A, tested alone)+(MIC of drug B, tested in combination)/(MIC of drug B, tested alone). FBC calculation was carried out just as well • Interactive categories were calculated from checkerboard analysis using MIC results from testing each agent alone and MIC results from the combination wells adjacent to the wells with growth in them […]

[2] = cited from earlier work
[3] = system: non-multiplying stationary phase bacteria; test: Elimination of dormant (resistant) bacteria, long term non-multiplying stationary phase model; assay type: cell-based; settings: nutrient depleted 5-6 day stationary phase cell suspension in PBS
Protocol: In order to test the elimination of dormant (resistant) bacteria the long term non-multiplying stationary phase model is used (Hu et al 2010 [18]). Long-term stationary phase cultures of 5 to 6 days are chosen with the test strains as described above. These late stationary phase cultures, may represent a mixed population with a dynamic balance of cell division and cell death. In order to induce the bacterial cells into a non-replicating stage, the cells are washed and incubated with PBS. […] The nutrient depleted 5-6 day stationary phase cell suspension now called non-multiplying stationary phase bacteria is used to test TEC and CS as mono substances or in combinations with the concentrations as mentioned above.

[4] = system: stationary bacteria from biofilm; test: Elimination of stationary bacteria from biofilm (catheter piece in CAMHB); assay type: cell-based; settings: for Elimination of bacteria from biofilm: conclusion, TEC alone in case a Gram-positive strain is tested; for Colony counts, incubated with as compared without a catheter piece / Increase (at least two dilution steps) of MIC, incubated with as compared without a catheter piece: tubes showing no gross turbidity; for Colony counts, incubated with as compared without a catheter piece: after centrifugation, any of the strains tested, TEC mono in case a Gram-positive strain is tested; for Increase (at least two dilution steps) of MIC, incubated with as compared without a catheter piece: MIC of CS, or of TEC in case a Gram-positive strain is tested
Protocol: To test the elimination of stationary bacteria from biofilm in vitro in CAMHB comparing combination versus monotherapy the same teicoplanin and colistin (serum) concentrations derived from pharmacokinetic studies are used as above.
Each of the total 16 sets as above is performed in duplicates. Each tube is filled with 5 ml CAMHB and in one of each duplicates a 2 cm long piece of a plastic catheter is inserted. Then all tubes are inoculated with the test strain and incubated aerobically at ambient air at 37° C. overnight (16-24 h). The tubes are removed from the incubator and the appropriate blank, mono or combination drug concentrations to be tested are added to each tube and the tubes are incubated aerobically at ambient air at 37° C. for an additional 24 h. The tubes are removed from the incubator and vortexed for about 10 min. Thereafter the catheter pieces from the corresponding one of the duplicates are removed.
From tubes showing growth with turbidity the MIC of CS or TEC in case of testing Gram-positive bacteria for the test strains is determined as above and compared to the original MIC. All tubes showing growth or no growth according to turbidity are centrifuged for 10 min at 3000 rpm and about 100 μL of the sediment is transferred onto IsoSensitest agar plate supplemented with 5% blood (Oxoid) and containing concentrations of CS of 4 mg/L, 8 mg/L, 16 mg/L, and 32 mg/L—or TEC of 4 mg/L, 8 mg/L, 16 mg/L in case a Gram-positive strain is tested. After overnight incubation the number of CFUs growing on the plates containing different CS concentrations—or TEC concentrations in case a Gram-positive strain is tested—are counted.

[5] = system: S. maltophilia 1237289; test: Checkerboard analysis MIC/FIC and MBC/FBC, colistin sulphate plus teicoplanin; assay type: cell-based, Stenotrophomonas maltophilia; settings: agent alone, CAMHB; for MIC: S. maltophilia 1237289; for MBC: S. maltophilia, second line of Table 2 (1237289 by order)
Protocol: (§1) Checkerboard analysis to determine minimal inhibitory concentration (MIC)/fractional inhibitory concentration (FIC) and minimal […] (MBC)/fractional […] (FBC) values of colistin sulphate (CS) plus teicoplanin (TP) for 6 Gram-negative strains with a bacterial load 5(1−10)*10^5 CFU/ml in a cation-adjusted Mueller-Hinton broth (CAMHB). • a. Antimicrobial stock solutions were prepared using sterile distilled water • b. CS was added along the ordinate; TP was added along the abscissa to 96 well, flat bottom, polystyrene panels with no treatment. Colistin alone was tested in triplicates. • c. Serial 2-fold dilutions starting with 640 μg/ml CS and 640 μg/ml TP were made; 15 μl volume of the serial dilutions were added for each agent to the appropriate wells; final volume at 30 μl • d. For each agent tested alone an additional 15 μl media was added to the well. 30 μl were added in control wells where none of the agent was tested. The negative control well contains 150 μl media without any additions • e. From an overnight bacterial culture in tryptic soy broth, 100 μl was added to 10 mL of fresh tryptic soy broth. This was then incubated at 37° C. for 1.5 hour at 180 rpm. • f. Bacteria in 120 μl CAMHB were added to each well (end concentration 5(1−10)*10^5 CFU/ml) • g. Plates were incubated at 37° C. in an ambient air incubator for 24 h • h. Turbidity at OD600 is determined with a plate photometer • i. By using a one-time inoculator 3 μl from each well of the 96-well plate were transferred to three blood agar plates. The plates were incubated over night at 37° C. in an ambient air incubator • j. MIC values are defined as lowest concentration which restricts bacterial growth to OD600≤0.1 • k. MBC values were determined by visual reading the lowest concentration which inhibits 99.9% of the growth of bacteria in the wells • l. Determination of the fractional inhibitory concentration (FIC) index and fractional bactericidal concentration (FBC) index and characterization of antimicrobial interactions was assessed • FIC calculation was carried out as: (MIC of drug A, tested in combination)/(MIC of drug A, tested alone)+(MIC of drug B, tested in combination)/(MIC of drug B, tested alone). FBC calculation was carried out just as well • Interactive categories were calculated from checkerboard analysis using MIC results from testing each agent alone and MIC results from the combination wells adjacent to the wells with growth in them
b. Indifference; FIC/FBC>0.5 to <4.0
c. Antagonism; FIC/FBC≥4.0

[6] = system: S. maltophilia 1221783; test: as above; assay type: cell-based, Stenotrophomonas maltophilia; settings: agent alone, CAMHB, inoculum 5*10^5 CFU/ml; for MIC: S. maltophilia 1221783, 24 h; for MBC: S. maltophilia, first line of Table 2 (1221783 by order)
Protocol: as §1, with “them […]” for “them”
b. Indifference; FIC/FBC>0.5 to <4.0 c. Antagonism; FIC/FBC≥4.0 […]
e. Stenotrophomonas maltophilia 1221783 (IHMA), colistin susceptible

[7] = system: A. junii 1397597; test: as above; assay type: cell-based; settings: agent alone, CAMHB, inoculum 5*10^5 CFU/ml; for MIC: A. junii 1397597, 24 h; for MBC: A. junii
Protocol: as §1, with “them […]” for “them”
b. Indifference; FIC/FBC>0.5 to <4.0 c. Antagonism; FIC/FBC≥4.0 a. A. junii 1391597 (IHMA), colistin resistant

[8] = system: A. guillouiae 1285286; test: as above; assay type: cell-based; settings: agent alone, CAMHB, inoculum 5*10^5 CFU/ml; for MIC: A. guillouiae 1285286, 24 h; for MBC: A. guillouiae
Protocol: as §1, with “them […]” for “them”
b. Indifference; FIC/FBC>0.5 to <4.0 c. Antagonism; FIC/FBC≥4.0 d. A. guillouiae 1285286 (IHMA), colistin resistant

[9] = system: A. nosocomialis 1461911; test: as above; assay type: cell-based; settings: agent alone, CAMHB, inoculum 5*10^5 CFU/ml; for MIC: A. nosocomialis 1461911, 24 h; for MBC: A. nosocomialis
Protocol: as §1, with “them […]” for “them”
b. Indifference; FIC/FBC>0.5 to <4.0 c. Antagonism; FIC/FBC≥4.0 b. A. nosocomialis 1461911 (IHMA), colistin resistant

teicoplanin [TP]
MIC ([1]; A. haemolyticus 1655843, 24 h): >64 µg/mL
MBC [1]: >64 µg/mL
terminal half-life, median (range) ([2]; Antony et al 1991): 168 (111-278) h
terminal half-life, mean (±SD) ([2]; Outman et al 1990): 157 (±93) h
Elimination of non-multiplying stationary phase bacteria [3]: not as mono substances
Elimination of bacteria from biofilm [4]: not so well the case
Colony counts, incubated with as compared without a catheter piece [4]: higher colony counts
Increase (at least two dilution steps) of MIC, incubated with as compared without a catheter piece [4]: about one third
MIC ([5]; inoculum 5*10^5 CFU/ml, 24 h): >64 (>64) mg/l
MIC ([5]; after 48 h growth (values in brackets)): >64 (>64) mg/l
MBC ([5]; inoculum 5*10^5 CFU/ml): >64 µg/mL
MIC [6]: >64 µg/mL
MBC [6]: >64 µg/mL
MIC [7]: >64 µg/mL
MBC [7]: >64 µg/mL
MIC [8]: >64 µg/mL
MBC [8]: >64 µg/mL
MIC [9]: >64 µg/mL
MBC [9]: >64 µg/mL

CCC(C)CCCC(=O)N[C@@H](CCN)C(=O)N[C@H](C(=O)N[C@@H](CCN)C(=O)N[C@H]1CCNC(=O)[C@H]([C@@H](C)O)NC(=O)[C@H](CCN)NC(=O)[C@H](CCN)NC(=O)[C@H](CC(C)C)NC(=O)[C@@H](CC(C)C)NC(=O)[C@H](CCN)NC1=O)[C@@H](C)O (stereo partly drawn) [CS, colistin sulphate] ({Heptanoyl(5-Me)}-[Dab]T[Dab][Dab][Dab][dL]L[Dab][Dab]T; lactam 4-C)
MBC ([1]; Acinetobacter haemolyticus, 1655843, read-out: MBC): > 16 µg/mL
Elimination of non-multiplying stationary phase bacteria [3]: not as mono substances
Elimination of bacteria from biofilm [4]: not so well the case
Colony counts, incubated with as compared without a catheter piece [4]: higher colony counts
Increase (at least two dilution steps) of MIC, incubated with as compared without a catheter piece [4]: about one third
MIC ([5]; Stenotrophomonas maltophilia, inoculum 5*10^5 CFU/ml, 24 h, read-out: MIC): 0.5 µg/mL
MIC ([5]; Stenotrophomonas maltophilia, after 48 h growth (values in brackets), read-out: MIC): 8 µg/mL
MBC ([5]; Stenotrophomonas maltophilia, inoculum 5*10^5 CFU/ml, read-out: MBC): 8 µg/mL
MIC ([6]; Stenotrophomonas maltophilia, 1221783, 24 h, read-out: MIC): 0.5 µg/mL
MBC ([6]; Stenotrophomonas maltophilia, read-out: MBC): 2 µg/mL
MBC ([7]; Acinetobacter junii, 1397597, read-out: MBC): 8 µg/mL
MIC ([7]; Acinetobacter junii, read-out: MIC): 2 µg/mL
MIC ([8]; read-out: MIC): 2 µg/mL
MBC ([8]; read-out: MBC): 4 µg/mL
MIC ([9]; Acinetobacter nosocomialis, 1461911, 24 h, read-out: MIC): ≥ 4 µg/mL
MBC ([9]; Acinetobacter nosocomialis, 1461911, read-out: MBC): 8 µg/mL
